Experimental data as given in patent publication US4568646A, “Preparation of antibiotic LL-D05139β from cultures of Glycomyces harbinensis, gen. nov., sp. nov” (American Cyanamid Company, priority 1985, dated 1986).

How the values were obtained:
[1] = system: human lung carcinoma (LX-1); test: Human tumor clonogenic (stem cell) assay, lung carcinoma; type: cell-based; conditions: for T/C (treated/control colonies): Lung Carcinoma
Protocol: (§1) This test was performed essentially by the method of A. Hamburger and S. Salmon, Primary bioassay of human tumor stem cells., Science, 197: 461-463 (1977). Human colon carcinoma (CX-1) and human lung carcinoma (LX-1) tumors were obtained from the National Cancer Institute and propagated in athymic Balb/c mice. Freshly removed tumors were dispersed with trypsin 0.25% and 5×10^4 lung carcinoma cells or 1×10^5 colon carcinoma cells in soft (0.3%) agarose medium containing 0.1 ml of test drug were plated onto a solidified (0.5%) agarose base medium in 35 mm grided dishes. Cultures were incubated at 37° C. in a humidified 5% carbon dioxide in air atmosphere. Colonies were counted after 10-11 days. A compound is considered active if the treated/control (T/C) value is ≤30%, representing a 70% cell kill.

[2] = Stability in solution as a function of pH; type: physicochemical
[3] = system: human colon carcinoma (CX-1); test: Human tumor clonogenic (stem cell) assay, colon carcinoma; type: cell-based
Protocol: as §1

C[C@H](N)C(=O)N[C@@H](COC(=O)C=[N+]=[N-])C(=O)O [LL-D05139β, N-L-alanyl-L-serine diazoacetate]
T/C (treated/control colonies) ([1]; concentration 2 mgc/ml): 23.2% | T/C (treated/control colonies) ([1]; concentration 20 mgc/ml): 17.8% | T/C (treated/control colonies) ([1]; concentration 200 mgc/ml): 13.0% | Activity in human tumor clonogenic assay (active if T/C ≤30%) ([1]; human lung (LX-1) carcinoma, at 2.0 mcg/ml and higher doses): active | Stability in solution ([2]; below pH 5.0): Decomposes rapidly | Stability in solution ([2]; weakly basic solutions): stable | T/C (treated/control colonies) ([3]; Colon Carcinoma, concentration 2 mgc/ml): 16.0% | Activity in human tumor clonogenic assay (active if T/C ≤30%) ([3]; colon (CX-1) carcinoma, at 2.0 mcg/ml and higher doses): active
